The record followed here is patent US20200408775A1, “APPARATUS AND METHOD FOR MULTIPLEXED PROTEIN QUANTIFICATION” (BIOMOTIF AB, priority 2018, published 2020).

The experiment deals with Human Colon Carcinoma Cells HCT116. The experiment in a line: Proteome changes in protein abundance upon drug treatment, 3-channel pI-multiplexing LC MS/MS. The class given is cell-based. The conditions noted are these: 45 nM Methotrexate for 48 h vs 0.01% DMSO control, p<0.05, 570 proteins quantified, 3 biological replicates. As to the method: A three-channel isoelectric point-based multiplexing was applied for the analysis of proteome changes in protein abundance upon drug treatment, using the following procedure:
Human Colon Carcinoma Cells HCT116 were cultured at 37° C. with 5% CO2 in high-glucose Dulbecco's Modified Eagle's Medium (DMEM, Thermo Fisher Scientific) supplemented with 10% fetal bovine serum (Gibco) and 1% penicillin/streptomycin (Gibco). The cells were treated for 48 h with 45 nM Methotrexate in 0.01% dimethyl sulfoxide (DMSO). As a control experiment, cells were treated with 0.01% DMSO. The medium containing the drug (or 0.01% DMSO for the control) was replaced each 24 h by fresh medium. A total of 3 control samples and 3 treated samples were produced.
Cells (1 million cells per replicate sample) were washed twice with PBS (1 mL) and resuspended in 300 μL of lysis buffer (3% SDC, 20 mM EPPS, pH 8.5). The total protein concentration was measured using the BCA protein assay kit (Pierce) in accordance with the manufacturer's protocol. […]
6. Samples were analyzed together within MaxQuant (1% FDR and match between runs) and Quanty quantification software (1% FDR). Isoelectric point calculations were in-silico calculated as described in Pirmoradian M et al 2014. Proteins containing at least 1 peptide on each pI-channel were selected for quantification.

SMILES strings stand for the structures.

Consider `CN(Cc1cnc2nc(N)nc(N)c2n1)c1ccc(C(=O)N[C@@H](CCC(=O)O)C(=O)O)cc1` [Methotrexate], for which the “number of proteins that demonstrated a statistical difference between the control and treated” value is 4.
